Assay type in all cases: cell-based
Assay [1] deals with strain C, fluoroquinolone-resistant clinical isolate of Streptococcus pneumoniae. In words: In vitro antibacterial activity (MIC), microdilution broth method (NCCLS), strain C. The conditions noted are these: read-out: In vitro Antibacterial Activity MIC, C. How it is done: (§1) Minimal inhibitory concentration (MIC) has been an indicator of in vitro antibacterial activity widely used in the art. The in vitro antimicrobial activity of representative compounds of the present invention was determined by the microdilution broth method following the test method from the National Committee for Clinical Laboratory Standards (NCCLS). This method is described in the NCCLS Document M7-A4, Vol. 17, No. 2, “Methods for Dilution Antimicrobial Susceptibility Test for Bacteria that Grow Aerobically—Fourth Edition”, which is incorporated herein by reference.
(§2) In this method two-fold serial dilutions of drug in cation adjusted Mueller-Hinton broth are added to wells in microdilution trays. The test organisms are prepared by adjusting the turbidity of actively growing broth cultures so that the final concentration of test organism after it is added to the wells is approximately 5×10^4 CFU/well.
(§3) Following inoculation of the microdilution trays, the trays are incubated at 35° C. for 16-20 hours and then read. […] The amount of growth in the wells containing the test compound is compared with the amount of growth in the growth-control wells (no test compound) used in each tray. As set forth in Table 4, representative compounds of the present invention were tested against a variety of pathogenic bacteria resulting in a range of activities depending on the organism tested.

Assay [2] relates to strain B, fluoroquinolone-resistant clinical isolate of Streptococcus pneumoniae. In words: In vitro antibacterial activity (MIC), microdilution broth method (NCCLS), strain B. The following applies: read-out: In vitro Antibacterial Activity MIC, B. The method, then: as §1, §2, §3
Assay [3] relates to strain D, fluoroquinolone-resistant clinical isolate of Streptococcus pneumoniae. Nature of the assay: In vitro antibacterial activity (MIC), microdilution broth method (NCCLS), strain D. The following applies: read-out: In vitro Antibacterial Activity MIC, D. The method, then: as §1, §2, §3
(In general: Dilution methods test growth across graded concentrations, often in twofold steps.)

Assay [4] has as its system Streptococcus pneumoniae ATCC 49619. Nature of the assay: In vitro antibacterial activity (MIC), microdilution broth method (NCCLS), strain E. The conditions noted are these: ATCC49619, 35° C., 16-20 hours. How it is done:
as §1, §2, §3

Assay [5] relates to Staphylococcus aureus OC4172. Nature of the assay: In vitro antibacterial activity (MIC), microdilution broth method (NCCLS), strain A. The following applies: cation adjusted Mueller-Hinton broth, 35° C., 16-20 hours. The method, then: as §1, §2, §3

≈ marks a conversion by molar mass, not a printed value.

MIC data for 18 compounds are collected here from US7902227B2, “C-7 isoxazolinyl quinolone / naphthyridine derivatives useful as antibacterial agents” (Janssen Pharmaceutica NV., priority 2008, dated 2011).

Regarding `CCOC(=O)C1=NOC2CN(c3nc4c(cc3F)c(=O)c(C(=O)O)cn4C3CC3)CC12` (stereo not shown) [ID No. 116, 1-Cyclopropyl-7-(3-ethoxycarbonyl-3a,4,6,6a-tetrahydro-pyrrolo[3,4-d]isoxazol-5-yl)-6-fluoro-4-oxo-1,4-dihydro-[1,8]naphthyridine-3-carboxylic acid], the MIC (as a rule, the least concentration at which growth counts as inhibited) in assay [1] is above 16 µg/mL; in assay [2] it was above 16 µg/mL; in assay [3] it was above 16 µg/mL; in assay [4], 4 µg/mL (≈ 9.29 µM); in assay [5] it was 0.12 µg/mL (≈ 0.279 µM).
Consider `O=C(O)c1cn(-c2ccc(F)cc2F)c2nc(N3CC4ON=C(c5ccccn5)C4C3)c(F)cc2c1=O` (stereo not shown) [ID No. 104, 1-(2,4-Difluoro-phenyl)-6-fluoro-4-oxo-7-(3-pyridin-2-yl-3a,4,6,6a-tetrahydro-pyrrolo[3,4-d]isoxazol-5-yl)-1,4-dihydro-[1,8]naphthyridine-3-carboxylic acid], for which the minimal inhibitory concentration (MIC) in assay [1] is 2 µg/mL (≈ 3.94 µM); in assay [2], 0.5 µg/mL (≈ 0.985 µM); in assay [3], 4 µg/mL (≈ 7.88 µM); in assay [4] it was 1 µg/mL (≈ 1.97 µM); in assay [5], 0.06 µg/mL (≈ 0.118 µM).
As for `COc1ccc(C2=NOC3CN(c4c(F)cc5c(=O)c(C(=O)O)cn6c5c4OC[C@@H]6C)CC23)cc1` (stereo partly drawn) [ID No. 128, 7-[cis-3-(4-Methoxyphenyl)-3a,4,6,6a-tetrahydropyrrolo[3,4-d]isoxazol-5-yl]S-(−)-9,10-difluoro-2,3-dihydro-3-methyl-7-oxo-7H-pyrido-[1,2,3-de][1,4]-benzoxazine-6-carboxylic acid], the MIC is 4 µg/mL (≈ 8.34 µM) in assay [1], 4 µg/mL (≈ 8.34 µM) in assay [3], 1 µg/mL (≈ 2.09 µM) in assay [4] and 0.12 µg/mL (≈ 0.25 µM) in assay [5].
As for `COc1c(N2CC3ON=C(CN)C3C2)c(F)cc2c(=O)c(C(=O)O)cn([C@@H]3C[C@@H]3F)c12` (stereo partly shown) [ID No. 203], the MIC in assay [1] is above 16 µg/mL; in assay [3] it was above 16 µg/mL; in assay [4], 2 µg/mL (≈ 4.6 µM); in assay [5] it was 0.12 µg/mL (≈ 0.276 µM).
For `O=C(O)c1cn(-c2ccc(F)cc2F)c2nc(N3CC4ON=C(c5ccc(C(F)(F)F)nc5)C4C3)c(F)cc2c1=O` (stereo not shown) [ID No. 103, 1-(2,4-Difluoro-phenyl)-6-fluoro-4-oxo-7-[3-(6-trifluoromethyl-pyridin-3-yl)-3a,4,6,6a-tetrahydro-pyrrolo[3,4-d]isoxazol-5-yl]-1,4-dihydro-[1,8]naphthyridine-3-carboxylic acid], the MIC in assay [1] is above 16 µg/mL; in assay [2] it was 8 µg/mL (≈ 13.9 µM); in assay [3], 4 µg/mL (≈ 6.95 µM); in assay [4] it was 2 µg/mL (≈ 3.48 µM); in assay [5], 0.25 µg/mL (≈ 0.434 µM).
As for `NCC1=NOC2CN(c3nc4c(cc3F)c(=O)c(C(=O)O)cn4C3CC3)CC12` (stereo not shown) [ID No. 201, 7-(3-Aminomethyl-3a,4,6,6a-tetrahydro-pyrrolo[3,4-d]isoxazol-5-yl)-1-cyclopropyl-6-fluoro-4-oxo-1,4-dihydro-[1,8]naphthyridine-3-carboxylic acid], the minimum inhibitory concentration (MIC) was above 16 µg/mL in assay [1]; above 16 µg/mL in assay [2]; above 16 µg/mL in assay [3]; 4 µg/mL (≈ 10.3 µM) in assay [4]; 0.5 µg/mL (≈ 1.29 µM) in assay [5].
For the compound `O=C(O)c1cn(-c2ccc(F)cc2F)c2nc(N3CC4ON=C(c5cccnc5)C4C3)c(F)cc2c1=O` (stereo not shown) [ID No. 105, 1-(2,4-Difluoro-phenyl)-6-fluoro-4-oxo-7-(3-pyridin-3-yl-3a,4,6,6a-tetrahydro-pyrrolo[3,4-d]isoxazol-5-yl)-1,4-dihydro-[1,8]naphthyridine-3-carboxylic acid], the MIC in assay [1] was 2 µg/mL (≈ 3.94 µM); in assay [2], 0.5 µg/mL (≈ 0.985 µM); in assay [3], 2 µg/mL (≈ 3.94 µM); in assay [4], 1 µg/mL (≈ 1.97 µM); in assay [5], 0.06 µg/mL (≈ 0.118 µM).
On to `COc1c(N2CC3ON=C(CN)C3C2)c(F)cc2c(=O)c(C(=O)O)cn(C3CC3)c12` (stereo not shown) [ID No. 202], for which the MIC is 16 µg/mL (≈ 38.4 µM) in assay [1], above 16 µg/mL in assay [3], 1 µg/mL (≈ 2.4 µM) in assay [4] and 0.06 µg/mL (≈ 0.144 µM) in assay [5].
On to `CCOC(=O)C1=NOC2CN(c3c(F)cc4c(=O)c(C(=O)O)cn(C5CC5)c4c3OC)CC12` (stereo not drawn) [ID No. 124, 7-[cis-3-(3-Ethoxycarbonyl)-3a,4,6,6a-tetrahydropyrrolo[3,4-d]isoxazol-5-yl]-1-cyclopropyl-8-methoxy-6-fluoro-4-oxo-1,4-dihydroquinoline-3-carboxylic acid], for which the MIC in assay [1] is above 16 µg/mL; in assay [2], above 16 µg/mL; in assay [3] it was above 16 µg/mL; in assay [4] it was 8 µg/mL (≈ 17.4 µM); in assay [5] it was 0.25 µg/mL (≈ 0.544 µM).
`O=C(O)c1cn(C2CC2)c2nc(N3CC4ON=C(c5ccncc5)C4C3)c(F)cc2c1=O` (stereo not shown) [ID No. 115]: the MIC in assay [1] is 8 µg/mL (≈ 18.4 µM); in assay [2] it was 16 µg/mL (≈ 36.7 µM); in assay [3], 4 µg/mL (≈ 9.19 µM); in assay [4], 1 µg/mL (≈ 2.3 µM); in assay [5] it was 0.06 µg/mL (≈ 0.138 µM).
Consider `COc1c(N2C[C@@H]3ON=C(c4cccnc4)[C@@H]3C2)c(F)cc2c(=O)c(C(=O)O)cn(C3CC3)c12` (relative stereo) [ID No. 123, 7-[cis-3-(3-Pyridyl)-3a,4,6,6a-tetrahydropyrrolo[3,4-d]isoxazol-5-yl]-1-cyclopropyl-8-methoxy-6-fluoro-4-oxo-1,4-dihydroquinoline-3-carboxylic acid], for which the MIC came out at 8 µg/mL (≈ 17.2 µM) in assay [1]; 8 µg/mL (≈ 17.2 µM) in assay [2]; 2 µg/mL (≈ 4.31 µM) in assay [3]; 0.5 µg/mL (≈ 1.08 µM) in assay [4]; 0.06 µg/mL (≈ 0.129 µM) in assay [5].
As for `COc1ccc(C2=NOC3CN(c4c(F)cc5c(=O)c(C(=O)O)cn(-c6nc(N)c(F)cc6F)c5c4Cl)CC23)cc1` (stereo not shown) [ID No. 133, 1-(6-Amino-3,5-difluoro-pyridin-2-yl)-8-chloro-6-fluoro-7-[3-(4-methoxy-phenyl)-3a,4,6,6a-tetrahydro-pyrrolo[3,4-d]isoxazol-5-yl]-4-oxo-1,4-dihydro-quinoline-3-carboxylic acid], the MIC worked out at 8 µg/mL (≈ 13.7 µM) in assay [1], 16 µg/mL (≈ 27.3 µM) in assay [3], 2 µg/mL (≈ 3.41 µM) in assay [4] and 0.25 µg/mL (≈ 0.427 µM) in assay [5].
With `COc1ccc(C2=NOC3CN(c4c(F)cc5c(=O)c(C(=O)O)cn([C@@H]6C[C@@H]6F)c5c4OC)CC23)cc1` (relative stereo) [ID No. 126, 7-[cis-3-(4-Methoxyphenyl)-3a,4,6,6a-tetrahydropyrrolo[3,4-d]isoxazol-5-yl]-1-[(1R,2S)-2-fluorocyclopropyl]-6-fluoro-8-methoxy-4-oxo-1,4-dihydro-quinoline-3-carboxylic acid], the MIC is 4 µg/mL (≈ 7.82 µM) in assay [1], 2 µg/mL (≈ 3.91 µM) in assay [3], 0.5 µg/mL (≈ 0.978 µM) in assay [4] and 0.03 µg/mL (≈ 0.0587 µM) in assay [5].
For the compound `C[C@H]1COc2c(N3CC4ON=C(c5cccnc5)C4C3)c(F)cc3c(=O)c(C(=O)O)cn1c23` (stereo partly drawn) [ID No. 130, 7-[cis-3-(3-pyridyl)-3a,4,6,6a-tetrahydropyrrolo[3,4-d]isoxazol-5-yl]S-(−)-9,10-difluoro-2,3-dihydro-3-methyl-7-oxo-7H-pyrido-[1,2,3-de][1,4]-benzoxazine-6-carboxylic acid], the MIC turned out to be 16 µg/mL (≈ 35.5 µM) in assay [1], 16 µg/mL (≈ 35.5 µM) in assay [3], 2 µg/mL (≈ 4.44 µM) in assay [4] and 0.25 µg/mL (≈ 0.555 µM) in assay [5].
For `C[C@H]1COc2c(N3CC4ON=C(CN)C4C3)c(F)cc3c(=O)c(C(=O)O)cn1c23` (stereo partly shown) [ID No. 204], the MIC in assay [1] was above 16 µg/mL; in assay [3], above 16 µg/mL; in assay [4], 16 µg/mL (≈ 39.8 µM); in assay [5] it was 0.25 µg/mL (≈ 0.621 µM).
Turning to `O=C(O)c1cn(C2CC2)c2nc(N3CC4ON=C(c5cccnc5)C4C3)c(F)cc2c1=O` (stereo not shown) [ID No. 114, 1-Cyclopropyl-6-fluoro-4-oxo-7-(3-pyridin-3-yl-3a,4,6,6a-tetrahydro-pyrrolo[3,4-d]isoxazol-5-yl)-1,4-dihydro-[1,8]naphthyridine-3-carboxylic acid], the minimum inhibitory concentration (MIC) in assay [1] turned out to be 2 µg/mL (≈ 4.59 µM); in assay [3], 8 µg/mL (≈ 18.4 µM); in assay [4] it was 1 µg/mL (≈ 2.3 µM); in assay [5], 0.12 µg/mL (≈ 0.276 µM).
Turning to `O=C(O)c1cn(C2CC2)c2nc(N3CC4ON=C(c5ccc(Cl)cc5)C4C3)c(F)cc2c1=O` (stereo not shown) [ID No. 110, 7-[3-(4-Chloro-phenyl)-3a,4,6,6a-tetrahydro-pyrrolo[3,4-d]isoxazol-5-yl]-1-cyclopropyl-6-fluoro-4-oxo-1,4-dihydro-[1,8]naphthyridine-3-carboxylic acid], the MIC in assay [1] is 8 µg/mL (≈ 17.1 µM); in assay [4] it was 0.5 µg/mL (≈ 1.07 µM); in assay [5] it was 0.06 µg/mL (≈ 0.128 µM).
On to `COc1ccc(C2=NO[C@H]3CN(c4c(F)cc5c(=O)c(C(=O)O)cn(C6CC6)c5c4OC)C[C@@H]23)cc1` (relative stereo) [ID No. 120, 7-[cis-3-(4-Methoxyphenyl)-3a,4,6,6a-tetrahydropyrrolo[3,4-d]isoxazol-5-yl]-1-cyclopropyl-8-methoxy-6-fluoro-4-oxo-1,4-dihydroquinoline-3-carboxylic acid], for which the minimal inhibitory concentration (MIC) in assay [1] turned out to be 4 µg/mL (≈ 8.11 µM); in assay [3], 2 µg/mL (≈ 4.05 µM); in assay [4] it was 1 µg/mL (≈ 2.03 µM); in assay [5], 0.06 µg/mL (≈ 0.122 µM).
